Measured values: ChEMBL document CHEMBL4219121, “Synthesis, antitumor activity and DNA binding features of benzothiazolyl and benzimidazolyl substituted isoindolines” (Bioorg Med Chem, 2018)
Active and inactive are the calls of the source. The calls are words filed in the database; no cut-off is given here.

What was measured:
[1] = Drug uptake in nucleus of human Caki2 cells at 50 uM measured after 5 hrs by Phalloidin CruzFluorTM 488 conjugate/propidium iodide staining based fluorescence microscopic analysis; format: ADME, subcellular; settings: caki-2, 5 h
Calf thymus DNA [2] = assay: Binding affinity to calf thymus DNA assessed as change in melting temperature at drug/DNA ratio of 0.5 by spectrophotmetric method; format: nucleic-acid assay; settings: Bos taurus
MCF7 = assay: Antiproliferative activity against human MCF7 cells after 72 hrs by MTT assay; format: functional, cell-based; settings: MCF7, 72 h
[3] = target: T1, DNA topoisomerase 1 (Homo sapiens) (UniProt P11387); assay: Inhibition of human topoisomerase1-mediated DNA relaxation assessed as DNA intercalation at 5 to 50 uM using supercoiled pUC19 as substrate pretreated with substrate for 45 mins followed by enzyme addition measured by agarose gel electrophoresis
T1 sequence (whole entry): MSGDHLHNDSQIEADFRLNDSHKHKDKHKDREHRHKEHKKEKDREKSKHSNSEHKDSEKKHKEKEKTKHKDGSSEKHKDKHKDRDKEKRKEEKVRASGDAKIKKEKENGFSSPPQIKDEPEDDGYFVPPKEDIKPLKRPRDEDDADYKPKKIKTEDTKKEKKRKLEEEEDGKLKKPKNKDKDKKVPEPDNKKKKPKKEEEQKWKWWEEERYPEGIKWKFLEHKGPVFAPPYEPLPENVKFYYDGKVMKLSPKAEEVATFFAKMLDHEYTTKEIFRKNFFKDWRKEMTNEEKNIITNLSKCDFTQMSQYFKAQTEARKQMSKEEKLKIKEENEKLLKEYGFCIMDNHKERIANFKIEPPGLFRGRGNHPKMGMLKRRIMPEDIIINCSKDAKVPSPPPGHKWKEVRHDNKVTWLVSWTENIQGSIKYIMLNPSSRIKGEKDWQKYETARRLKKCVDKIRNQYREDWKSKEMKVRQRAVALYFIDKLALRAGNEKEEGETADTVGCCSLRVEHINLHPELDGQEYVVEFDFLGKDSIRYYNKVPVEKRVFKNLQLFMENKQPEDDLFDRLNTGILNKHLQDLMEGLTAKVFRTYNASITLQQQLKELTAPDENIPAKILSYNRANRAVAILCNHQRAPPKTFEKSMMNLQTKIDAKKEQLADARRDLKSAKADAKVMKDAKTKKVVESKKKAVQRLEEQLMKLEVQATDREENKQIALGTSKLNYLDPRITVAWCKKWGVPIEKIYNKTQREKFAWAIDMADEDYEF

HeLa [4] = assay: Antiproliferative activity against human HeLa cells after 72 hrs by MTT assay; format: functional, cell-based
[5] = Drug uptake in human Caki2 cells at 50 uM measured after 5 hrs by Phalloidin CruzFluorTM 488 conjugate/propidium iodide staining based fluorescence microscopic analysis; format: ADME, cell-based; settings: caki-2, 5 h
SW-620 [6] = assay: Antiproliferative activity against human SW620 cells after 72 hrs by MTT assay; format: functional, cell-based; settings: SW-620, 72 h
HepG2 = assay: Antiproliferative activity against human HepG2 cells after 72 hrs by MTT assay; format: functional, cell-based; settings: HepG2, 72 h
Calf thymus DNA [7] = assay: Binding affinity to calf thymus DNA at 1 to 50 uM by circular dichroism spectral analysis; format: nucleic-acid assay; settings: Bos taurus
CAKI-2 = assay: Cytotoxicity against human Caki2 cells after 72 hrs by MTT assay; format: functional, cell-based; settings: CAKI-2, 72 h
[8] = target: T1, DNA topoisomerase 1 (Homo sapiens); assay: Poison activity at human topoisomerase1 assessed as accumulation of nicked DNA at 20 uM using supercoiled pUC19 as substrate pretreated with substrate for 45 mins followed by enzyme addition measured by agarose gel electrophoresis relative to control
[9] = Drug uptake in nucleolus of human Caki2 cells at 50 uM measured after 5 hrs by Phalloidin CruzFluorTM 488 conjugate/propidium iodide staining based fluorescence microscopic analysis; format: ADME, subcellular; settings: caki-2, 5 h
Calf thymus DNA [10] = assay: Binding affinity to calf thymus DNA assessed as change in melting temperature at drug/DNA ratio of 0.25 by spectrophotmetric method; format: nucleic-acid assay; settings: Bos taurus
BJ = assay: Antiproliferative activity against human BJ cells after 72 hrs by MTT assay; format: cell-based
HeLa [11] = assay: Cell cycle arrest in human HeLa cells assessed as accumulation at subG1 phase at 1 uM after 48 hrs by propidium iodide staining based flow cytometric method (reference value: 17 to 20.1 %); format: functional
SW-620 [12] = assay: Cell cycle arrest in human SW620 cells assessed as accumulation at subG1 phase at 0.5 uM after 48 hrs by propidium iodide staining based flow cytometric method (reference value: 4.1 to 11.3 %); format: functional
SW-620 [13] = assay: Induction of apoptosis in human SW620 cells assessed as activation of caspase-8 at 0.5 uM after 24 to 48 hrs by colorimetric assay; format: functional, cell-based
SW-620 [14] = assay: Induction of apoptosis in human SW620 cells assessed as phenotypic changes after 24 to 48 hrs by microscopic analysis; format: functional, cell-based
HeLa [15] = assay: Induction of apoptosis in human HeLa cells assessed as activation of caspase-8 at 0.5 uM after 24 to 48 hrs by colorimetric assay; format: functional, cell-based
[16] = Drug uptake in cytoplasm of human Caki2 cells at 50 uM measured after 5 hrs by Phalloidin CruzFluorTM 488 conjugate/propidium iodide staining based fluorescence microscopic analysis; format: ADME, subcellular; settings: caki-2, 5 h
HeLa [17] = assay: Induction of apoptosis in human HeLa cells assessed as phenotypic changes after 24 to 48 hrs by microscopic analysis; format: functional, cell-based
HeLa [18] = assay: Cell cycle arrest in human HeLa cells assessed as accumulation at subG1 phase at 0.5 to 1 uM after 24 hrs by propidium iodide staining based flow cytometric method; format: functional
[19] = target: DNA topoisomerase 2-alpha (Homo sapiens) (UniProt P11388); assay: Poison activity at human topoisomerase2 assessed as accumulation of linear DNA at 10 to 50 uM using supercoiled pUC19 as substrate pretreated with substrate for 45 mins followed by […] measured by ethidium bromide staining based agarose gel electrophoresis
DNA topoisomerase 2-alpha (Homo sapiens), sequence (P11388 whole entry): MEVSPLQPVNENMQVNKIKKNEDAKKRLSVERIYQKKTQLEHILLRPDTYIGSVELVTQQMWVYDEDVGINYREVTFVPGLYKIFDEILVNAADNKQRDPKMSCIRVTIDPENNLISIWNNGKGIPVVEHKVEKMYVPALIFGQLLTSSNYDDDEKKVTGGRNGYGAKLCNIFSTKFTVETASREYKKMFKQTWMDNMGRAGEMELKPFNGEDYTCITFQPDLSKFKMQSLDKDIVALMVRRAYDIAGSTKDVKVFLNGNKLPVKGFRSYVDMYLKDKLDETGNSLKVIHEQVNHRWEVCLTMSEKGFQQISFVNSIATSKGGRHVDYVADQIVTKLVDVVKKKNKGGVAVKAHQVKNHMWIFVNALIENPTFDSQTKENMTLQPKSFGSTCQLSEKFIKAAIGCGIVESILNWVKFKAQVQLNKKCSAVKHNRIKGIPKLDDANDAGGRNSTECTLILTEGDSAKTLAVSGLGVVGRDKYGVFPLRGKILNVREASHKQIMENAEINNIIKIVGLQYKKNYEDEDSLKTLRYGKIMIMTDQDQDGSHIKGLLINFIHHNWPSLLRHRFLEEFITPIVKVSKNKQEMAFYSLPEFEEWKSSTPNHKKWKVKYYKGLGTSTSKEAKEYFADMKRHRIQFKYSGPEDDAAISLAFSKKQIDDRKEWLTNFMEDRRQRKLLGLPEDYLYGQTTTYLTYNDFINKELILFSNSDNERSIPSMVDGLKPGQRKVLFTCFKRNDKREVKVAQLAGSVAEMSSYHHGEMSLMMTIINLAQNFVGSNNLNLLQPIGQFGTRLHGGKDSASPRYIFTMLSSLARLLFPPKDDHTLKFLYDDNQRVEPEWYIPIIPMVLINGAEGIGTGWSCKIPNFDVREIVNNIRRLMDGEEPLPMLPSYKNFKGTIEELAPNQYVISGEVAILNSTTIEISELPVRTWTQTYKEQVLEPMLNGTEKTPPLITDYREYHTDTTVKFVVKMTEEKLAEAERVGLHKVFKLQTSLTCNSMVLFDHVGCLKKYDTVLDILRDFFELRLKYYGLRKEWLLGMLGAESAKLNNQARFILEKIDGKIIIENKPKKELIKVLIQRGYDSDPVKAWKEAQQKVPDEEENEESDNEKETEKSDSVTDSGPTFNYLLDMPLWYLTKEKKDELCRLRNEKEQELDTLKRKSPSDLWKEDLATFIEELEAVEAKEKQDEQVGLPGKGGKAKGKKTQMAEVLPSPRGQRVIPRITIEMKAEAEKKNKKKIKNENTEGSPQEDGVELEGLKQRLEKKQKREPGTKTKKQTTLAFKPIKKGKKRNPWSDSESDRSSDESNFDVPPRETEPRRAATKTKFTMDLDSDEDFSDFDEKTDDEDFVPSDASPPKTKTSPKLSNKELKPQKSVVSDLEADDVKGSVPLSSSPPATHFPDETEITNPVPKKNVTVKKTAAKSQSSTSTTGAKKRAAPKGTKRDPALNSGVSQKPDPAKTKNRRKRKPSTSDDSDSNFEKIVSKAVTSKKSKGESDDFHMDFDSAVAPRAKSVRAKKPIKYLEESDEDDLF

SW-620 [20] = assay: Induction of apoptosis in human SW620 cells assessed as activation of caspase-6 at 0.5 uM measured after 48 hrs by colorimetric assay; format: functional, cell-based
SW-620 [21] = assay: Cell cycle arrest in human SW620 cells assessed as accumulation at subG1 phase at 1 uM after 48 hrs by propidium iodide staining based flow cytometric method (reference value: 4.1 to 11.3 %); format: functional
SW-620 [22] = assay: Induction of apoptosis in human SW620 cells assessed as activation of caspase-2 at 0.5 uM measured after 48 hrs by colorimetric assay; format: functional, cell-based
Calf thymus DNA [23] = assay: Binding affinity to calf thymus DNA assessed as change in melting temperature at drug/DNA ratio of 1 by spectrophotmetric method; format: nucleic-acid assay; settings: Bos taurus
HeLa [24] = assay: Cell cycle arrest in human HeLa cells assessed as accumulation at subG1 phase at 0.5 uM after 48 hrs by propidium iodide staining based flow cytometric method (reference value: 17 to 20.1 %); format: functional
SW-620 [25] = assay: Cell cycle arrest in human SW620 cells assessed as accumulation at subG1 phase at 0.5 to 1 uM after 24 hrs by propidium iodide staining based flow cytometric method; format: functional
SW-620 [26] = assay: Cell cycle arrest in human SW620 cells assessed as accumulation at subG1 phase at 5 uM after 48 hrs by propidium iodide staining based flow cytometric method (reference value: 4.1 to 11.3 %); format: functional
HeLa [27] = assay: Induction of apoptosis in human HeLa cells assessed as activation of caspase-2 at 1 uM measured after 48 hrs by colorimetric assay; format: functional, cell-based
HeLa [28] = assay: Cell cycle arrest in human HeLa cells assessed as accumulation at subG1 phase at 5 uM after 48 hrs by propidium iodide staining based flow cytometric method (reference value: 17 to 20.1 %); format: functional
SW-620 [29] = assay: Induction of apoptosis in human SW620 cells assessed as activation of caspase-2 at 1 uM measured after 48 hrs by colorimetric assay; format: functional, cell-based
SW-620 [30] = assay: Cell cycle arrest in human SW620 cells assessed as accumulation at subG1 phase at 1 to 5 uM after 24 hrs by propidium iodide staining based flow cytometric method; format: functional
SW-620 [31] = assay: Induction of apoptosis in human SW620 cells assessed as activation of caspase-6 at 1 uM measured after 48 hrs by colorimetric assay; format: functional, cell-based
HeLa [32] = assay: Induction of apoptosis in human HeLa cells assessed as activation of caspase-8 at 1 uM after 24 to 48 hrs by colorimetric assay; format: functional, cell-based
SW-620 [33] = assay: Induction of apoptosis in human SW620 cells assessed as activation of caspase-8 at 1 uM after 24 to 48 hrs by colorimetric assay; format: functional, cell-based
HeLa [34] = assay: Cell cycle arrest in human HeLa cells assessed as accumulation at subG1 phase at 1 to 5 uM after 24 hrs by propidium iodide staining based flow cytometric method; format: functional

Structure (SMILES)	Drug uptake [1]	ΔTm (Calf thymus DNA [2])	IC50 (MCF7)	IC50 (HeLa [4])	Drug uptake [5]	IC50 (SW-620 [6])	IC50 (HepG2)	Activity (Calf thymus DNA [7])	IC50 (CAKI-2)	ΔTm (Calf thymus DNA [10])	IC50 (BJ)	Activity (HeLa [11])	Activity (SW-620 [14])	Drug uptake [16]	Activity (HeLa [17])	Activity [19]	Activity (SW-620 [21])	ΔTm (Calf thymus DNA [23])	also measured
Cl.Cl.c1ccc2c(c1)CN(c1nc3ccc(C4=NCCN4)cc3[nH]1)/C2=N/c1nc2ccc(C3=NCCN3)cc2[nH]1	Active	18.5 °C	23.4 µM	15.4 µM	Active	35 µM	9.01 µM	Active	80.2 µM	9.3 °C	22.9 µM								inhibition (qualitative) [3]: Active; fold change (FC) [8]: 1.8; Drug uptake [9]: Active
CC(C)NC(=N)c1ccc2nc(N3Cc4ccccc4C3=O)sc2c1.Cl	Active	3.2 °C	0.36 µM	0.32 µM	Active	0.15 µM	0.34 µM	Active	0.75 µM	1.2 °C	0.05 µM	38.1%	Active	Active	Active	Active	59.9%	4.4 °C	Activity (SW-620 [12]): 33.9%; Activity (SW-620 [13]): inactive; Activity (HeLa [15]): inactive; Activity (HeLa [18]): inactive; Activity (SW-620 [20]): Active; Activity (SW-620 [22]): Active; Activity (HeLa [24]): 45.7%; Activity (SW-620 [25]): inactive
Cl.O=C1c2ccccc2CN1c1nc2ccc(C3=NCCN3)cc2s1	Active	3.1 °C	0.7 µM	1 µM	Active	0.74 µM	0.78 µM	Active	1.5 µM	1.8 °C	0.2 µM	29.1%	Active	Active	Active	Active	34.4%	6.2 °C	Activity (SW-620 [26]): 85.9%; Activity (HeLa [27]): Active; Activity (HeLa [28]): 70.7%; Activity (SW-620 [29]): Active; Activity (SW-620 [30]): inactive; Activity (SW-620 [31]): Active; Activity (HeLa [32]): inactive; Activity (SW-620 [33]): inactive; Activity (HeLa [34]): inactive
